Key:
[1] = test system: Acinetobacter baumannii 'Patient 2'; assay: Colistin MIC by standard agar dilution; type: cell-based; conditions: colistin-resistant isolate
Method: Bacterial cultures (i.e., Acinetobacter baumannii ATCC17978, Colistin-resistant Acinetobacter baumannii 19606R^41. Colistin-resistant Acinetobacter baumannii-Patient 2′. Klebsiella pneumoniae ATCC700603. Bacillus subtilis 1A578 (Bacillus Genetic Stock Center), Staphylococcus aureus ATCC29213) were plated on LB agar (Sigma-Aldrich, Lot #SLBR1403V) and grown overnight at 37° C. Single colonies of each strain were then inoculated in LB broth (IX) (Gibco, Lot #1803272) and grown at 37° C. for 18 hours shaking at 150 rpm. Cell concentrations were measured with OD595 spectrometry (Infinite F500. Tecan).
Colistin minimum inhibitory concentrations (MIC) of bacterial strains were confirmed by standard agar dilution methods. Results were interpreted according to the Clinical and Laboratory Standards Institute susceptibility breakpoints.

red blood cell = type: cell-based, human
Method: This process was repeated for the PEGylated device. Red blood cell lysis was then analyzed to determine release of free hemoglobin in plasma. Plasma hemoglobin was measured by according to well-established protocols. Following passage through the device, the blood samples were centrifuged (500×g) and the supernatant was spectrophotometrically analyzed for hemoglobin release using a plate-reader (Tecan, Infinite M1000 Pro) at 451 nm in order to determine percent hemolysis relative to the Triton-X positive control. Triton X-100 (Sigma-Aldrich) was diluted in diH2O to result in a 20 v/v % Triton-X detergent concentration, which served as the positive control. The negative control used was EDTA-anticoagulated whole, human blood that was not flowed through a double spiral microfluidic device (i.e. untreated). Percent of hemoglobin release was calculated according to the following equation: Hemoglobin release (%)=[(Sample451nm−Negative control451nm=)/(Positive control451nm−Negative control451nm)]×100%. Complete blood counts of each sample (i.e. untreated, colistinated device, PEGylated device) were performed by the Vanderbilt University Translational Pathology Shared Resource Core.

Colistin
Colistin MIC [1]: >256 µg/mL

Triton X-100 [Positive control (20 v/v % Triton-X)]
Hemolysis (%) (red blood cell): 100% ± 3.08%

Source: US11883821B2, “Fluidic device for the detection, capture, or removal of a disease material” (Vanderbilt University, priority 2016, dated 2024)
